In patent publication US8809538B2, “Piperidine-containing compounds and use thereof” (Array BioPharma Inc., priority 2009, dated 2014):

How the values were obtained:
Crl: CD(SD) rats = experiment: Evaluation of hepatic damage by the compounds in rats; assay type: in vivo; settings: 100 mg/kg orally once daily for 4 days, blood at the day after the final dosing
Description: (3) Evaluation of Hepatic Damage by the Compounds in Rats
The compounds of the present invention were administered orally to male Crl: CD(SD) rats with four animals per group once daily for 4 days at dose levels of 0 (control) and 100 mg/kg to investigate hepatotoxicity. The compounds of the present invention were dissolved in 70% Wellsolve (solubilizer, Celeste Corporation) containing 30% DMSO (dimethyl sulfoxide) and administered orally at a dose volume of 10 mL/kg. The control group was treated with the vehicle at the same dosing volume.
Blood was drawn from the abdominal vein of each animal at the day after the final dosing. The plasma was separated by centrifugation at 13,684×g for 5 min at 4° C. The plasma concentration of aspartate aminotransferase (AST) and alanine aminotransferase (ALT), biochemical markers of hepatic damage, were measured.

[1] = tested on: high fat-fed obese mice (C57BL/6-DIO); experiment: Assay of an anti-diabetic effect in DIO (diet-induced obese) mice; assay type: in vivo; settings: oral, 30 or 100 mg/kg b.i.d. for 15 days, overnight fasting state, dose-dependently
Source text: (1) Assay of an Anti-Diabetic Effect of the Compounds in DIO (Diet-Induced Obese) Mice
Male, 12-weeks old high fat-fed obese mice (C57BL/6-DIO, Charles River Japan) were orally administered with the compounds of the present invention twice a day for 15 days. During the experiment, mice were provided high fat pellet diet (D12492, Research Diets) and tap water from bottle of feed water ad libitum. On the first day of the experiment, blood samples were collected from tail vein using a microcapillary to measure plasma glucose concentration. Based on plasma glucose concentration, mice were divided into some groups (five mice per group) and started dosing. The dosing was carried out by oral gavage, after suspending the compounds of the present invention in the previously described vehicle. The control group received only the vehicle. After 15 days from starting the dosing, plasma samples were collected from tail vein at overnight fasting state. Plasma glucose and insulin levels were measured with commercial kits (glucose, Glucose CH-Test Wako®, Wako Pure Chemical Industries, Ltd.; insulin, Rat Insulin ELISA Kit, Morinaga Institute of Biological Science Inc.).

[2] = tested on: rat transient focal cerebral ischemia model; experiment: Assay of a neuroprotective effect in the rat transient focal cerebral ischemia model (MCA occlusion); assay type: in vivo, Sprague Dawley rats; settings: 120 min MCA occlusion, 100 mg/kg orally 1 hour before and 12 hours after MCA occlusion, evaluated at 24 hours after MCA occlusion
Description: (2) Assay of a Neuroprotective Effect of the Compound in the Rat Transient Focal Cerebral Ischemia Model.
Transient focal cerebral ischemia (120 min) was induced by intraluminal middle cerebral artery (hereinafter abbreviated to MCA) occlusion using the method of Koizumi et al., (in Japanese Journal of Stroke 1986; 8:1-8). Male Sprague Dawley rats (7 weeks old; Charles River Japan) were used. Under conditions of 30% oxygen and 70% air, the animals inhaled 2.5% halothane (Takeda Chemical Industries, Ltd.) through a halothane vaporizer (Shinano Works). Under the anesthesia, the left common carotid artery (hereinafter abbreviated to CCA), the external carotid artery (hereinafter abbreviated to ECA) and the internal carotid artery (hereinafter abbreviated to ICA) were isolated from surrounding connective tissue, then the CCA and the ECA were ligated with surgical thread. […] Immediately before MCA reperfusion neurological score of animals were observed using the method of Yonemori et al., (in J Cereb Blood Flow Metab 1996; 16: 973-80.) and animals that scored less than 5 were excluded due to insufficient occlusion. […]
At 24 hours after MCA occlusion, neurological score were evaluated. […] The cerebral infarct area was identified in scanned images and measured using image analysis software (Photoshop 5.5/NIH image 1.63) to determine the infarct area per slice. […]

SMILES	plasma alanine aminotransferase (ALT) level (Crl: CD(SD) rats)	plasma aspartate aminotransferase (AST) level (Crl: CD(SD) rats)	fasted plasma glucose level [1]	fasted plasma insulin level [1]	cerebral infarct volume [2]	neurological score [2]
CCOc1nc(C(=O)NCC2CCN(Cc3cnc(-c4ccccn4)s3)CC2)cc(N)c1C#N [Example 115, 4-amino-5-cyano-6-ethoxy-N-((1-((2-(pyridin-2-yl)thiazol-5-yl)methyl)piperidin-4-yl)methyl)picolinamide]	not increased	not increased	significantly decreased	significantly decreased	significant preventive effect	significant preventive effect
CCOc1nc(C(=O)NCC2CCN(Cc3sc(-c4ccccn4)nc3CN(C)C)CC2)cc(N)c1C#N [Example 118, 4-amino-5-cyano-N-((1-((4-((dimethylamino)methyl)-2-(pyridin-2-yl)thiazol-5-yl)methyl)piperidin-4-yl)methyl)-6-ethoxypicolinamide]	not increased	not increased				
